Measured values taken from patent US8980885B2, “Plant disease controlling composition and method for controlling plant disease” (Sumitomo Chemical Company, Limited, priority 2008, dated 2015).

Tested on: Sclerotinia sclerotiorum
Test: Controlling test against Sclerotinia sclerotiorum on cucumber by foliage spraying (Test Example 1)
Assay type: in vivo
Settings: single compound, 12° C., high humidity, 6 days
Experimental: A sand loam was charged into a plastic pot, and cucumber (Sagamihanjiro) was seeded, and grown in a greenhouse for 12 days. A flowable of the compound I, and a flowable comprising any one of the compound II-i, the compound II-ii, the compound III, the compound IV, the compound V and the compound VI were diluted with water separately, and they were tank-mixed to prepare a tank mix solution having each predetermined concentration. The tank mix solution was subjected to foliage spraying so that it was sufficiently adhered to a leaf surface of the cucumber. After spraying, the plant was air-dried, and a PDA medium containing hyphae of Sclerotinia sclerotiorum was placed on the cucumber leaf surface. After seeding, this was placed under 12° C. and the high humidity for 6 days, the controlling effect was investigated. Separately, for comparison, each of the flowables was diluted with water to prepare a water-diluted solution of compounds I to VI having the predetermined concentration, and the similar controlling test was carried out. Further, for calculating a effective value, an onset area rate (ratio of onset area occupied in leaf area examined) in each treatment group was determined. The effective value was calculated by the Equation 1. […] A: Onset area rate of non-treated group B: Onset area rate of treated group In general, an effective value expected in treatment by mixing given two kinds of active ingredient compounds, i.e., an expected effective value is calculated by a Colby calculation equation of the Equation 2. E=X+Y−(X×Y)/100 “Equation 2” X: Effective value obtained by treatment with M ppm of the compound I Y: Effective value obtained by treatment with N ppm of the compound II, III or IV E: Effective value expected in treatment with M ppm of the compound I and N ppm of the compound II, III or IV (expected effective value) In addition, a synergistic effect was shown herein by a value calculated by the following Equation 3.

CNC(=O)C(OC)c1ccccc1COc1cc(C)ccc1C (racemic) [Compound II-ii]
Actual effective value (0.2 ppm): 4%
Actual effective value (0.8 ppm): 31%

CNC(=O)[C@H](OC)c1ccccc1COc1cc(C)ccc1C [Compound II-i]
Actual effective value (0.2 ppm): 14%
Actual effective value (0.8 ppm): 55%

CNC(=O)/C(=N/OC)c1ccccc1COc1cc(C)ccc1C [Compound III, (αE)-2-[(2,5-dimethylphenoxy)methyl]-α-(methoxyimino)-N-methylbenzeneacetamino, reference compound]
Actual effective value (0.2 ppm): 9%

CO/N=C(/C(=O)OC)c1ccccc1CO/N=C(\C)c1cccc(C(F)(F)F)c1 [Compound IV, methyl (E)-methoxyimino-{(E)-α-[1-(α,α,α-trifluoro-m-tolyl]ethylideneaminooxy)-o-tolyl)acetate, reference compound]
Actual effective value (0.2 ppm): 28%

C=CCSC(=O)n1c(N)c(-c2ccccc2C)c(=O)n1C(C)C [Compound I]
Actual effective value (3.1 ppm): 58%

CO/C=C(/C(=O)OC)c1ccccc1Oc1cc(Oc2ccccc2C#N)ncn1 [Compound V, methyl (E)-2-{2-[6-(2-cyanophenoxy)pyrimidin-4-yloxy]phenyl}-3-methoxyacrylate, reference compound]
Actual effective value (0.2 ppm): 10%

COC(=O)N(OC)c1ccccc1COc1ccn(-c2ccc(Cl)cc2)n1 [Compound VI, methyl 2-[[1-(4-chlorophenyl)-1H-pyrazol-3-yloxymethyl]phenyl](N-methoxy)carbamate, reference compound]
Actual effective value (0.2 ppm): 29%
